Assay results published in BindingDB's records for patent US20250243186 (Hansoh Bio, 2025).
pIC50: −log10 of the molar value.

Molecular target: T1, Complement factor B [470-764] (UniProt P00751)
T1 construct: 470-764
Assay: Factor B Binding Assay by TR-FRET
Protocol: Table 1: Factor B binding affinity of each compound tested was determined using a time-resolved fluorescence resonance energy transfer (TR-FRET) technology. 10 nM recombinant his-tagged Factor B catalytic domain, varying concentrations of inhibitors, 4 nM LANCE Eu-W1024 Anti-6×His Antibody and 100 nM TR-FRET_tool2 tracer was incubated in 1× Kinase Buffer A for 1 h. Measurement was performed in a reaction volume of 15 μL by adding 5 μL of the test compound, 5 μL of Factor B/antibody mixture and 5 μL of tracer into white opaque 384-well assay plates. The TR-FRET signal was read on a plate reader with an excitation wavelength of 340 nm and detection wavelengths of 615 and 665 nm.

T1 sequence (P00751 470-764): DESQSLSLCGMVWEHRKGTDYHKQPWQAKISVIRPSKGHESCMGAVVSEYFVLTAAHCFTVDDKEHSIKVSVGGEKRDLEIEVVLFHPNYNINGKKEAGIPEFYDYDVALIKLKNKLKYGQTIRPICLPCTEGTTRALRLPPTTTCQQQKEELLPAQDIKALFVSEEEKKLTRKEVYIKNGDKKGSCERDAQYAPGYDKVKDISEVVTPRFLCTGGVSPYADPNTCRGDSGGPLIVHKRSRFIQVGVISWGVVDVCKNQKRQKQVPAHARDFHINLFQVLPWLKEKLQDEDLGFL

pIC50: 7.35
SMILES: COc1cc(C)c2[nH]ccc2c1CN1CC2CCC2C1c1ccc(C(=O)O)cc1 (stereo unspecified) [US20250243186, Example 22]
